Columns and labels:
[1] = system: Caco-2 (colon); assay: Human tumor cell line panel, sulforhodamine B; format: cell-based; conditions: 48 hours, mean ± sd
[2] = system: MDA-MB-231 (breast, ER−); assay: Human tumor cell line panel, sulforhodamine B; format: cell-based; conditions: 48 hours, mean ± sd
[3] = system: C57BL/6 mice, DSS model of IBD; assay: Acute DSS-colitis model; format: in vivo, mouse; conditions: 2% DSS, 50 mg/kg oral daily
Description: We have conducted experiments with SK inhibitors using the dextran sulfate sodium (DSS) model of IBD. In these experiments, male C57BL/6 mice were provided with standard rodent diet and water ad libitum. After their acclimation, the animals were randomly divided into groups of 5 or 6 for DSS (40,000 MW from ICN Biomedicals, Inc., Aurora, Ohio)—and drug-treatment. The SK inhibitors were dissolved in PEG400, and given once daily by oral gavage in a volume of 0.1 mL per dose. Dipentum, an FDA-approved anti-colitis drug whose active ingredient, olsalazine, is converted to 5-aminosalicylic acid in vivo, was used as a positive control. The mice were given normal drinking water or 2% DSS and treated orally with an SK inhibitor or Dipentum at a dose of 50 mk/kg daily. The body weight of each animal was measured each day, and the Disease Activity Index (DAI) was scored for each animal on Days 4-6. On Day 6, the animals were sacrificed by cervical dislocation and the entire colon was removed and measured to the nearest 0.1 cm. Portions of the colons were then fixed, sectioned and their histologies were assessed on a blinded basis to determine their Histology Score. Other portions of the colons were used for biochemical analyses of inflammation markers.

**Q.** With O=C(NCc1ccncc1)C12CC3CC(C1)CC(c1ccc(Cl)cc1)(C3)C2 [Compound 62, 3-(4-Chloro-phenyl)-adamantane-1-carboxylic acid (pyridin-4-ylmethyl)-amide] as the compound, how does the IC50 [1] read?
**A.** The IC50 was 11.8 ± 5.6 µM.

**Q.** And the IC50 [2]?
**A.** The IC50 was 29.1 ± 11.1 µM.

**Q.** What about the “increase in colon myeloperoxidase (MPO) activity” value [3] of the same compound?
**A.** The value was “markedly attenuated”.

**Q.** And the colon length ([3]; Day 6)?
**A.** The colon length was “intermediate length”.

**Q.** And the “histological examination of colon sections” value ([3]; Day 6)?
**A.** The value was “no or mild crypt damage, no or low levels of inflammatory cell infiltration and no edema in the submucosa”.

**Q.** And the “Disease Activity Index (intensity of IBD manifestations)” value ([3]; Days 4-6)?
**A.** Its value is “reduced”.

**Q.** What about the “colonic S1P levels vs DSS-alone” value ([3]; LC-MS/MS) of the same compound?
**A.** The value was “markedly lower”.

— patent publication US8557800B2, “Sphingosine kinase inhibitors” (Apogee Biotechnology Corporation, priority 2005, dated 2013)
